# Results published in patent publication US20160158200A1, “Combinations of Hepatitis C Virus Inhibitors” (priority 2013, published 2016).
# Test system: HCV genotype-1a variant with glutamine 30 changed to glutamate in the NS5A protein
# Format: cell-based
# Conditions: test compound titrated with BMS-790052 fixed at 200 nM; genotype 1a Q30E replicon
# How it was run: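 Synergy was assessed by combining several fixed amounts of an NS5A-targeting compound with a titration of the second compound of interest.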
row,SMILES,Fold-Synergistic 1a (Q30E) [fold]
1,CC(C)(C)C(NC(=O)C1CCC(O)CC1)c1nc(-c2ccc(-c3ccc(-c4c[nH]c(C(NC(=O)C5CCC(O)CC5)C(C)(C)C)n4)cc3)cc2)c[nH]1 (stereo not drawn) [Compound W-134],>100
2,"CC(C)(C)OC(=O)N1CCCCC1(C)C(=O)N[C@H](c1nc(-c2ccc(-c3ccc(-c4c[nH]c([C@@H](NC(=O)C5(C)CCCCN5C(=O)OC(C)(C)C)C(C)(C)C)n4)cc3)cc2)c[nH]1)C(C)(C)C (single isomer, unassigned) [Compound L-46a]",>100
3,CC(C)(C)[C@H](NC(=O)C1CCC(F)(F)CC1)c1ncc(CCc2ccc3cc(-c4cnc([C@@H](NC(=O)C5CCC(F)(F)CC5)C(C)(C)C)[nH]4)ccc3c2)[nH]1 [Compound B6],>100
4,CC(C)[C@H](NC(=O)CCN1CCOCC1)c1ncc(-c2ccc(-c3ccc(-c4cnc([C@@H](NC(=O)CCN5CCOCC5)C(C)C)[nH]4)cc3)cc2)[nH]1 [Compound S-62],<10
5,CC(C)(C)[C@H](NC(=O)c1ccc(Cl)s1)c1nc(-c2ccc(-c3ccc(-c4c[nH]c([C@@H](NC(=O)c5ccc(Cl)s5)C(C)(C)C)n4)cc3)cc2)c[nH]1 [Compound N-65],>100
6,CC(C)[C@H](NC(=O)c1cccc(F)c1)c1ncc(-c2ccc(-c3ccc(-c4cnc([C@@H](NC(=O)c5cccc(F)c5)C(C)C)[nH]4)cc3)cc2)[nH]1 [Compound S-73],>100
7,CC(C)(C)[C@H](NC(=O)C(=O)N1CCC(C(F)(F)F)CC1)c1nc(-c2ccc(-c3ccc(-c4c[nH]c([C@@H](NC(=O)C(=O)N5CCC(C(F)(F)F)CC5)C(C)(C)C)n4)cc3)cc2)c[nH]1 [Compound W-60],>100
8,CC(C)[C@H](NC(=O)c1cocn1)c1ncc(-c2ccc(-c3ccc(-c4cnc([C@@H](NC(=O)c5cocn5)C(C)C)[nH]4)cc3)cc2)[nH]1 [Compound P-92],>10
9,CC(C)(C)[C@H](NC(=O)C1(C2(O)CCC(F)(F)CC2)CC1)c1ncc(-c2ccc(C#Cc3ccc4nc([C@@H](NC(=O)C5(C6(O)CCC(F)(F)CC6)CC5)C(C)(C)C)[nH]c4c3)cc2)[nH]1 [Compound B48B],>100
10,CC1CC(C(=O)NC(c2nc(-c3ccc(-c4ccc(-c5c[nH]c(C(NC(=O)C6CC(C)CN6C(=O)OC(C)(C)C)C6(C)CC6)n5)cc4)cc3)c[nH]2)C2(C)CC2)N(C(=O)OC(C)(C)C)C1 (stereo not drawn) [Compound W-71],>100
11,CC(C)(C)[C@H](NC(=O)C1CC2(C1)OCCO2)c1nc(-c2ccc(-c3ccc(-c4c[nH]c([C@@H](NC(=O)C5CC6(C5)OCCO6)C(C)(C)C)n4)cc3)cc2)c[nH]1 (stereo partly drawn) [Compound W-178],>100
12,CC(C)(C)[C@H](NC(=O)C1CCC(F)(F)CC1)c1nc2c([nH]1)-c1ccc(-c3ccc4c(ccc5nc([C@@H](NC(=O)C6CCC(F)(F)CC6)C(C)(C)C)[nH]c54)c3)cc1CC2 [Compound B24],>100
13,CCCOC(=O)N[C@H](c1ncc(-c2ccc(-c3ccc(-c4cnc([C@@H](NC(=O)OCCC)C(C)C)[nH]4)cc3)cc2)[nH]1)C(C)C [Compound S-208],>100
14,CCOC(=O)N[C@@H](C(=O)N[C@H](c1ncc(-c2ccc(-c3ccc(-c4cnc([C@@H](NC(=O)[C@H](NC(=O)OCC)C(C)C)C(C)C)[nH]4)cc3)cc2)[nH]1)C(C)C)C(C)C [Compound S-247],>100
15,CN(C)C(=N[C@H](c1ncc(-c2ccc(-c3ccc(-c4cnc([C@@H](NC(=O)C(C)(C)C5CCCC5)C(C)(C)C)[nH]4)cc3)cc2)[nH]1)C(C)(C)C)N(C)C [Compound B83],>100
16,CC(C)(C)OC(=O)NC1CCC(C(=O)N[C@H](c2nc(-c3ccc(-c4ccc(-c5c[nH]c([C@@H](NC(=O)C6CCC(NC(=O)OC(C)(C)C)CC6)C(C)(C)C)n5)cc4)cc3)c[nH]2)C(C)(C)C)CC1 (stereo partly drawn) [Compound S-270],>100
17,CC(C)[C@H](NC(=O)c1ccc(Cl)s1)c1ncc(-c2ccc(-c3ccc(-c4cnc([C@@H](NC(=O)c5ccc(Cl)s5)C(C)C)[nH]4)cc3)cc2)[nH]1 [Compound P-91],>100
18,CC(C)(C)[C@H](NC(=O)[C@@H]1C[C@@H]2[C@H](C1)C2(F)F)c1nc(-c2ccc(-c3ccc(-c4c[nH]c([C@@H](NC(=O)[C@@H]5C[C@@H]6[C@H](C5)C6(F)F)C(C)(C)C)n4)cc3)cc2)c[nH]1 [Compound Y-9],>100
19,CC(C)[C@H](NC(=O)C(C)(C)C)c1ncc(-c2ccc(-c3ccc(-c4cnc([C@@H](NC(=O)C(C)(C)C)C(C)C)[nH]4)cc3)cc2)[nH]1 [Compound S-34],>100
20,CC(C)[C@H](NC(=O)c1c(F)cccc1Cl)c1ncc(-c2ccc(-c3ccc(-c4cnc([C@@H](NC(=O)c5c(F)cccc5Cl)C(C)(C)C)[nH]4)cc3)cc2)[nH]1 [Compound Y-43],>100
21,CCC(C)(C)C(=O)N[C@H](c1nc(-c2ccc(-c3ccc(-c4c[nH]c([C@@H](NC(=O)C(C)(C)CC)C(C)(C)C)n4)cc3)cc2)c[nH]1)C(C)(C)C [Compound P-11],>100

row,SMILES,Fold-Synergistic 1a (Q30E) [fold]
1,CC(C)[C@H](NC(=O)C(O)(CF)CF)c1nc(-c2ccc(-c3ccc(-c4c[nH]c([C@@H](NC(=O)C(O)(CF)CF)C(C)C)n4)cc3)cc2)c[nH]1 [Compound N-142],>100
2,CC(C)OC(=O)N1CCC[C@H]1c1ncc(-c2ccc(-c3ccc(-c4cnc([C@@H]5CCCN5C(=O)OC(C)C)[nH]4)cc3)cc2)[nH]1 [Compound S-220],>10
3,CC(C)[C@H](NC(=O)N(C)C)c1nc(-c2ccc(-c3ccc(-c4c[nH]c([C@@H](NC(=O)N(C)C)C(C)C)n4)cc3)cc2)c[nH]1 [Compound S-228],>100
4,"CC(O)C1(C(=O)N[C@H](c2nc(-c3ccc(-c4ccc(-c5c[nH]c([C@@H](NC(=O)C6(C(C)O)CCCCC6)C(C)(C)C)n5)cc4)cc3)c[nH]2)C(C)(C)C)CCCCC1 (single isomer, unassigned) [Compound N-152B]",>100
5,CC(C)CC(=O)N[C@H](c1ncc(-c2ccc(-c3ccc(-c4cnc([C@@H]5CCCN5C(=O)CC(C)C)[nH]4)cc3)cc2)[nH]1)C(C)C [Compound Y-16],>10
6,CC(C)(C)[C@H](NC(=O)C1CCC(F)(F)CC1)c1ncc(-c2ccc3cc4cc(-c5cnc([C@@H](NC(=O)C6CCC(F)(F)CC6)C(C)(C)C)[nH]5)ccc4cc3c2)[nH]1 [Compound B26],>100
7,"COc1ccccc1C(O)CC(=O)N[C@H](c1nc(-c2ccc(-c3ccc(-c4c[nH]c([C@@H](NC(=O)C5(C(O)c6ccccc6OC)CC5)C(C)(C)C)n4)cc3)cc2)c[nH]1)C(C)(C)C (single isomer, unassigned) [Compound N-135C]",>100
8,"CC(C)(C)[C@H](NC(=O)C1CCCCC1CO)c1nc(-c2ccc(-c3ccc(-c4c[nH]c([C@@H](NC(=O)C5CCCCC5CO)C(C)(C)C)n4)cc3)cc2)c[nH]1 (single isomer, unassigned) [Compound L-141b]",>100
9,CC(C)[C@H](NC(=O)c1cccc2c1OCC2)c1ncc(-c2ccc(-c3ccc(-c4cnc([C@@H](NC(=O)c5cccc6c5OCC6)C(C)C)[nH]4)cc3)cc2)[nH]1 [Compound S-55],>100
10,CC1(C(=O)NC(c2nc(-c3ccc(-c4ccc(-c5c[nH]c(C(NC(=O)C6(C)CCCCCO6)C(C)(C)C)n5)cc4)cc3)c[nH]2)C(C)(C)C)CCCCCO1 (stereo not drawn) [Compound Y-91],>100
11,CC(C)[C@H](NC(=O)N1CCCCC1)c1ncc(-c2ccc(-c3ccc(-c4cnc([C@@H](NC(=O)N5CCCCC5)C(C)C)[nH]4)cc3)cc2)[nH]1 [Compound S-234],>100
12,CC(C)[C@H](NC(=O)c1ccccc1)c1ncc(-c2ccc(-c3ccc(-c4cnc([C@@H](NC(=O)c5ccccc5)C(C)C)[nH]4)cc3)cc2)[nH]1 [Compound S-5],>100
13,COC(=O)N(C)C1(C(=O)N[C@H](c2nc(-c3ccc(-c4ccc(-c5c[nH]c([C@@H](NC(=O)C6(N(C)C(=O)OC)CC6)C6CC6)n5)cc4)cc3)c[nH]2)C2CC2)CC1 [Compound L-34],>100
14,CC(C)(C(=O)N[C@H](c1ncc(-c2ccc(-c3ccc(-c4cnc([C@@H](NC(=O)C(C)(C)C5=CCCCC5)C(C)(C)C)[nH]4)cc3)cc2)[nH]1)C(C)(C)C)C1=CCCCC1 [Compound B86],>100
15,COc1ccccc1C1OC(=O)CC1C(=O)NC(c1nc(-c2ccc(-c3ccc(-c4c[nH]c(C(NC(=O)C5CC(=O)OC5c5ccccc5OC)C(C)(C)C)n4)cc3)cc2)c[nH]1)C(C)(C)C (mixture of isomers) [Compound S-263],>10
16,CC(C)[C@H](NC(=O)OCC(C)(C)C)c1ncc(-c2ccc(-c3ccc(-c4cnc([C@@H](NC(=O)OCC(C)(C)C)C(C)C)[nH]4)cc3)cc2)[nH]1 [Compound S-210],>100
17,CC(C)C(C)(C)C(=O)N[C@H](c1ncc(-c2ccc(-c3ccc(-c4cnc([C@@H](NC(=O)C(C)(C)C(C)C)C(C)(C)C)[nH]4)cc3)cc2)[nH]1)C(C)(C)C [Compound B88],>100
18,CC(C)(C)OC(=O)N1CCCC1C(=O)NC(c1nc(-c2ccc(-c3ccc(-c4c[nH]c(C(NC(=O)C5CCCN5C(=O)OC(C)(C)C)C(C)(C)C)n4)cc3)cc2)c[nH]1)C(C)(C)C (stereo not drawn) [Compound W-87],>100
19,CC(C)[C@H](NC(=O)c1cc2ccccc2o1)c1ncc(-c2ccc(-c3ccc(-c4cnc([C@@H](NC(=O)c5cc6ccccc6o5)C(C)C)[nH]4)cc3)cc2)[nH]1 [Compound S-87],>100
20,CC1([C@H](NC(=O)C(O)(CF)CF)c2nc(-c3ccc(-c4ccc(-c5c[nH]c([C@@H](NC(=O)C(O)(CF)CF)C6(C)CC6)n5)cc4)cc3)c[nH]2)CC1 [Compound N-141],>100
21,CC(C)[C@H](NC(=O)C1(c2ccc(F)cc2)CCC1)c1ncc(-c2ccc(-c3ccc(-c4cnc([C@@H](NC(=O)C5(c6ccc(F)cc6)CCC5)C(C)C)[nH]4)cc3)cc2)[nH]1 [Compound P-82],>100
